This is an account of results in patent publication US20150258101A1 (Proximagen Limited, priority 2014, published 2015).

The target of assay [1] is T1, human ether a go-go related gene (hERG) K+ channel (Homo sapiens, UniProt Q12809).
T1 construct: a Chinese Hamster Lung cell line stably expressing the full length hERG channel; expressed in transfected cells; host or cells: Chinese Hamster Lung cell line
The assay can be described thus: hERG assay, IonWorks patch clamp electrophysiology. It counts as cell-based. Particulars: Chinese Hamster Lung cell line stably expressing hERG; max assay concentration 11 uM. Here is the method: Compounds of the invention were tested for inhibition of the human ether a go-go related gene (hERG) K^+ channel using IonWorks patch clamp electrophysiology. 8 Point concentration-response curves were generated on two occasions using 3-fold serial dilutions from the maximum assay concentration (11 uM). Electrophysiological recordings were made from a Chinese Hamster Lung cell line stably expressing the full length hERG channel. Single cell ion currents were measured in the perforated patch clamp configuration (100 ug/mL amphoterocin) at room temperature using an IonWorks Quattro instrument. The internal solution contained 140 mM KCl, 1 mM MgCl2, 1 mM EGTA and 20 mM HEPES and was buffered to pH 7.3. The external solution contained 138 mM NaCl, 2.7 mM KCl, 0.9 mM CaCl2, 0.5 mM MgCl2, 8 mM Na2HPO4 and 1.5 mM KH2PO4, and was buffered to pH 7.3. […] This sequence was repeated 5 times at a frequency of 0.25 Hz. Currents were measured from the tail step at the 5th pulse, and referenced to the holding current. Compounds were incubated for 6-7 min prior to a second measurement of the hERG signal using an identical pulse train. […] A control compound (quinidine) was used (see Table 20 below).
In general terms: hERG is a cardiac potassium channel; its block is linked to QT prolongation.

Assay [2] has as its target T2, purified recombinantly expressed human SSAO (Homo sapiens, UniProt Q16853).
T2 construct: made in house
T2 sequence (Q16853 1-763): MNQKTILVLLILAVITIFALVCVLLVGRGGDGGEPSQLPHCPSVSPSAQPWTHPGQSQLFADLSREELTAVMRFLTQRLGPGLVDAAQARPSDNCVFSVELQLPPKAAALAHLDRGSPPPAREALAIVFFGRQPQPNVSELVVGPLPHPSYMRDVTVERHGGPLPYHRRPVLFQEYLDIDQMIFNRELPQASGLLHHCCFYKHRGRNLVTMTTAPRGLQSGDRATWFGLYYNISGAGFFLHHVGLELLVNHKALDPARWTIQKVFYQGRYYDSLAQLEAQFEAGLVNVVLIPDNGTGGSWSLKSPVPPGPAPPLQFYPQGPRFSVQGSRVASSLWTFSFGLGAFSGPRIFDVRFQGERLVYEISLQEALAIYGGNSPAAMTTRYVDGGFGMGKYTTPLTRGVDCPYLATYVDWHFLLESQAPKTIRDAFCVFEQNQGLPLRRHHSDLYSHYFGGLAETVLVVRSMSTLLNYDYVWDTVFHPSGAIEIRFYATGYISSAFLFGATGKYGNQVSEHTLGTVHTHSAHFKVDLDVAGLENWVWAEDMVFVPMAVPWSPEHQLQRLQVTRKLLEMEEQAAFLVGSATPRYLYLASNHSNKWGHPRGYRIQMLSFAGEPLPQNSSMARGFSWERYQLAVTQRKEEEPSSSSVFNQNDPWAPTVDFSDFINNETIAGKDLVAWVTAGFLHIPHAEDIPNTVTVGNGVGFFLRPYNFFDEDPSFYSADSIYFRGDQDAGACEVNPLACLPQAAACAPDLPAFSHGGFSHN
The assay can be described thus: SSAO enzyme inhibition assay (benzylamine substrate; hydrogen peroxide/HRP-coupled or 14C aldehyde detection). It counts as biochemical. Particulars: SSAO inhibitory activity, RT. Summed up:
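IC50 values came from a four-parameter logistic fit of % signal decrease versus DMSO control, with no-enzyme background subtracted. Two read-outs were used with human recombinant SSAO after ~15 min compound pre-incubation at RT. In the H2O2/HRP-Amplex read-out, enzyme was 1 ug/ml and benzylamine 100 uM (pH 7.4 phosphate), with resorufin fluorescence followed 1-2 h. In the 14C-benzaldehyde read-out (PBS), enzyme was 10 ug/ml and benzylamine 40 uM, run 1 h then acid-stopped.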

T1 sequence (Q12809 whole entry): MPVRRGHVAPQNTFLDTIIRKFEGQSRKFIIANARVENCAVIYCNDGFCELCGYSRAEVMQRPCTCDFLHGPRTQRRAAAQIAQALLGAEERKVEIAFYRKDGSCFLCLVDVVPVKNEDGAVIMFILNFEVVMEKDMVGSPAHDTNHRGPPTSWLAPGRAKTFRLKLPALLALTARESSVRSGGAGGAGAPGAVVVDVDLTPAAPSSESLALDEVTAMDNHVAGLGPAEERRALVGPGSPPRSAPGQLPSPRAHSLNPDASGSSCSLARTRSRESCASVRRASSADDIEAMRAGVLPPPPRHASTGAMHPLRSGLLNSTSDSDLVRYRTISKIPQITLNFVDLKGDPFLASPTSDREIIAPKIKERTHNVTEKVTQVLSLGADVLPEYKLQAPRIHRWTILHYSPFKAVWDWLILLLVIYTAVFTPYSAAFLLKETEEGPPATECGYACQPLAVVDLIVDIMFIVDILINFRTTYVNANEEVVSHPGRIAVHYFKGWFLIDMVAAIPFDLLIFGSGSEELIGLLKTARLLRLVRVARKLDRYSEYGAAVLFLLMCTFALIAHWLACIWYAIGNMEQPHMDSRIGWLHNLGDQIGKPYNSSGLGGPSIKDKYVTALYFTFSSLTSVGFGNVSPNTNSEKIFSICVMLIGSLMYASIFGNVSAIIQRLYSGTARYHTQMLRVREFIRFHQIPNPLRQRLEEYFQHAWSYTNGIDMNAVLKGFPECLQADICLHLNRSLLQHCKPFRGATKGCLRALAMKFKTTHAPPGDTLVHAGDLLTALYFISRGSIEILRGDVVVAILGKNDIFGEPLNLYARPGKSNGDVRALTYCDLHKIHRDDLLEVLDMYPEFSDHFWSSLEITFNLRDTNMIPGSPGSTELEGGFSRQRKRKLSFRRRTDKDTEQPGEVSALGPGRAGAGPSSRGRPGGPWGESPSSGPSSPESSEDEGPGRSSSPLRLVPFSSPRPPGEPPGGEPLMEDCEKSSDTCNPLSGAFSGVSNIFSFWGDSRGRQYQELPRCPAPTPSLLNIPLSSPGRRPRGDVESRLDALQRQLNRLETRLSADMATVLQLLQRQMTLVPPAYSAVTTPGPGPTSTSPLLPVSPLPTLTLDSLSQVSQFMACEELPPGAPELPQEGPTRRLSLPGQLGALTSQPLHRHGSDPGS

The IC50 is the concentration needed to halve the response being measured. In the case of `Fc1ccc(-n2c(-c3cnc(NC4CCOCC4)nc3)nc3ccncc32)cc1` [Example 20, 5-[3-(4-Fluorophenyl)-3H-imidazo[4,5-c]pyridin-2-yl]-N-(oxan-4-yl)pyrimidin-2-amine], the results for the concentration for half-maximal inhibition (IC50) in assay [1] and in assay [2] were over 10 µM and 0.05 to 0.2 µM, respectively.

In the case of `C[C@@H]1CN(c2ncc(-c3nc4ccncc4n3-c3ccc(F)cc3)cn2)C[C@H](C)O1` [Example 23, (2R,6S)-4-{5-[3-(4-Fluorophenyl)-3H-imidazo [4,5-c]pyridin-2-yl]pyrimidin-2-yl}-2,6-dimethylmorpholine], the concentration for half-maximal inhibition (IC50) in assay [1] was over 10 µM; in assay [2], under 0.05 µM.

`CC1(C)CN(c2ncc(-c3nc4ccncc4n3-c3ccc(F)cc3)cn2)CCO1` [Example 24, 4-{5-[3-(4-Fluorophenyl)-3H-imidazo[4,5-c]pyridin-2-yl]pyrimidin-2-yl}-2,2-dimethylmorpholine]: the figures for the IC50 in assay [1] and in assay [2] were over 10 µM and under 0.05 µM, respectively.

Regarding `Clc1ccc(-n2c(-c3cnc(NC4CCOCC4)nc3)nc3ccncc32)cc1` [Example 11, 5-[3-(4-Chlorophenyl)-3H-imidazo[4,5-c]pyridin-2-yl]-N-(oxan-4-yl)pyrimidin-2-amine; bis(trifluoroacetic acid)], the IC50 in assay [1] was over 10 µM; in assay [2], under 0.05 µM.

With `Nc1ccc(-c2nc3ccncc3n2-c2ccc(Cl)cc2)cn1` [Example 110, 5-[3-(4-Chlorophenyl)-3H-imidazo[4,5-c]pyridin-2-yl]pyridin-2-amine], the results for the IC50 in assay [1] and in assay [2] were over 10 µM and 0.2 to 1.2 µM, respectively.

`CN(C)c1ccc(-c2nc3ccncc3n2-c2ccc(F)cc2)cn1` [Example 71, 5-[3-(4-Fluorophenyl)-3H-imidazo[4,5-c]pyridin-2-yl]-N,N-dimethylpyridin-2-amine]: the concentration for half-maximal inhibition (IC50) was over 10 µM in assay [1] and 0.2 to 1.2 µM in assay [2].

Consider `NC(=O)N1CCN(c2ccc(-c3nc4ccncc4n3-c3ccc(F)cc3)cn2)CC1` [Example 92, 4-{5-[3-(4-Fluorophenyl)-3H-imidazo[4,5-c]pyridin-2-yl]pyridin-2-yl}piperazine-1-carboxamide], for which the IC50 was over 10 µM in assay [1] and under 0.05 µM in assay [2].

Consider `NC(=O)NC1CCN(c2ccc(-c3nc4ccncc4n3-c3ccc(Cl)cc3)cn2)CC1` [Example 91, (1-{5-[3-(4-Chlorophenyl)-3H-imidazo[4,5-c]pyridin-2-yl]pyridin-2-yl}piperidin-4-yl)urea; bis(trifluoroacetic acid)], for which the half-maximal inhibitory concentration (IC50) in assay [1] is over 10 µM; in assay [2], 0.2 to 1.2 µM.

As for `CS(=O)(=O)N1CCN(c2ccc(-c3nc4ccncc4n3-c3ccc(F)cc3)cn2)CC1` [Example 89, 1-{5-[3-(4-Fluorophenyl)-3H-imidazo[4,5-c]pyridin-2-yl]pyridin-2-yl}-4-methanesulfonylpiperazine], the values for the IC50 in assay [1] and in assay [2] were over 10 µM and under 0.05 µM, respectively.

Consider `Clc1ccc(-n2c(-c3ccc(N4CCOCC4)nc3)nc3ccncc32)cc1` [Example 47, 4-{5-[3-(4-Chlorophenyl)-3H-imidazo[4,5-c]pyridin-2-yl]pyridin-2-yl}morpholine], for which the IC50 in assay [1] was 1 to 10 µM; in assay [2] it was under 0.05 µM.

`O=C1CN(c2ncc(-c3cc4ccncc4n3-c3ccc(Cl)cc3)cn2)CCN1` [Example 128, 4-{5-[1-(4-Chlorophenyl)-1H-pyrrolo[2,3-c]pyridin-2-yl]pyrimidin-2-yl}piperazin-2-one]: the figures for the IC50 in assay [1] and in assay [2] were over 10 µM and under 0.05 µM, respectively.

Regarding `Fc1cnccc1-c1cc2ccncc2n1-c1ccc(Cl)cc1` [Example 152, 4-[1-(4-Chlorophenyl)-1H-pyrrolo[2,3-c]pyridin-2-yl]-3-fluoropyridine], the IC50 is 1 to 10 µM in assay [1] and 0.2 to 1.2 µM in assay [2].

`CS(=O)(=O)NC1CCN(c2ccc(-c3nc4ccncc4n3-c3ccc(Cl)cc3)cn2)CC1` [Example 88, N-(1-{5-[3-(4-Chlorophenyl)-3H-imidazo[4,5-c]pyridin-2-yl]pyridin-2-yl}piperidin-4-yl)methanesulfonamide]: the IC50 in assay [1] is 1 to 10 µM; in assay [2], under 0.05 µM.

For the compound `Cc1cc(N2CCOCC2)ncc1-c1nc2ccncc2n1-c1ccc(F)cc1` [Example 21, 4-{5-[3-(4-Fluorophenyl)-3H-imidazo[4,5-c]pyridin-2-yl]-4-methylpyridin-2-yl}morpholine], the IC50 was over 10 µM in assay [1] and under 0.05 µM in assay [2].

Turning to `Fc1ccc(-n2c(-c3ccc(N4CCOCC4)nc3)nc3ccncc32)cc1` [Example 54, 4-{5-[3-(4-Fluorophenyl)-3H-imidazo[4,5-c]pyridin-2-yl]pyridin-2-yl}morpholine], the figures for the IC50 in assay [1] and in assay [2] were over 10 µM and 0.2 to 1.2 µM, respectively.

Take `Clc1ccc(-n2c(-c3ccc(N4CCOCC4)nn3)nc3ccncc32)cc1` [Example 4, 4-{6-[3-(4-Chlorophenyl)-3H-imidazo[4,5-c]pyridin-2-yl]pyridazin-3-yl}morpholine]: the IC50 in assay [1] was 1 to 10 µM; in assay [2] it was under 0.05 µM.

Consider `Clc1ccc(-n2c(-c3cnc(NC4CCOCC4)nc3)cc3ccncc32)cc1` [Example 139, 5-[1-(4-Chlorophenyl)-1H-pyrrolo[2,3-c]pyridin-2-yl]-N-(oxan-4-yl)pyrimidin-2-amine], for which the results for the IC50 in assay [1] and in assay [2] were 0.1 to 1 µM and under 0.05 µM, respectively.

For the compound `Cc1ccc(-n2c(-c3cnc(N4CCOCC4)nc3)nc3ccncc32)cc1` [Example 57, 4-{5-[3-(4-Methylphenyl)-3H-imidazo[4,5-c]pyridin-2-yl]pyrimidin-2-yl}morpholine], the figures for the half-inhibitory concentration (IC50) in assay [1] and in assay [2] were over 10 µM and 0.05 to 0.2 µM, respectively.
